Measured values as given in patent US20110212100A1, “METHODS FOR MODULATING DEVELOPMENT AND EXPANSION OF IL-17 EXPRESSING CELLS” (priority 2007, published 2011).

Key:
[1] = test system: Jurkat T cells; assay: Apoptosis of Jurkat T cells (Annexin V / PI); type: cell-based; details: 100 nM HF, 30 hours
Protocol: The non-specific cytoxicity of HF in both normal and transformed T-cells at high doses was evaluated. Anti-CD3/anti-CD28 activated primary T cells were harvested 6 days after activation and cultured in the presence of IL-2 with or without HF (100 nM). As a positive control, some T cells were cultured without IL-2 to induce apoptosis (FIG. 3A). Jurkat T cells, a transformed T cell leukemia line, were cultured in complete medium with or without HF (100 nM) as indicated (FIG. 3B). Both primary and Jurkat T cells were cultured for 30 hours and programmed cell death, i.e. apoptosis, was determined by Annexin V staining and propidium iodide (PI) uptake and cells were analyzed by flow cytometry. The percent of apoptotic T cells at each time point was plotted and was defined as Annexin V^+ PI^−. […] In further experiments, titrating amounts of HF were added to primary T cells and apoptosis was determine as above at the indicated time points. At 100 nM HF, but not 30 nM or lower, generalized T-cell apoptosis was observed (FIG. 3C).

[2] = test system: Asns, Gpt2, eIF4Ebp1 mRNA; assay: Quantitative real-time PCR of AAR-associated genes in T cells; type: cell-based, mouse; details: 10 nM HF, within 4 hours of T cell activation
Protocol: FIG. 12C is a graph depicting the results of quantitative real-time PCR performed on cDNA generated from resting naïve T cells (TN) or T cells activated for 4 hours in the presence of 10 nM MAZ1310 or 10 nM HF. Asns, Gpt2 or eIF4Ebp1 mRNA expression was normalized to Hprt levels and data are presented as mean values±SD in duplicate samples.
Quantitative real-time PCR: T cells were activated as described above, collected at the indicated times and pellets were flash-frozen in liquid nitrogen. Total RNA was obtained by RNeasy (Quiagen, Valencia, Calif.) column purification per manufacturers instructions. RORγt expression was determined after reverse transcription using the message sensor kit (Ambion, Austin, Tex.) per manufacturers instructions and taqman primers and probe as described elsewhere (I. Ivanov, et al., Cell 126, 1121, 2006). Sybrgreen quantitative real-time PCR was performed on T cell RNA samples following reverse transcription via SuperScript II first-strand cDNA synthesis kit (Invitrogen, Carlsbad, Calif.). All PCR data was collected on an iCycler thermal cycler (Biorad, Hercules, Calif.). Primer sequences used for detecting stress response genes are listed below.

[3] = test system: mice; details: IP, cited from earlier work
[4] = test system: STAT3 phosphorylation; assay: Kinetics of STAT3 phosphorylation in developing Th17 cells; type: cell-based, mouse
Protocol: FIG. 11A is a series of graphs depicting representative histograms displaying the kinetics of STAT3 phosphorylation in developing Th17 cells treated with or without HF. Resting naïve T cells (shaded peak), T cells activated in the presence of TGFβ plus IL-6 (TGFβ/IL-6) treated with 10 nM MAZ1310, TGFβ/IL-6-activated T cells treated with 5 nM HF, TGFβ/IL-6-activated T cells treated with 10 nM HF. T cells were fixed at the indicated times and intracellular phospho-STAT3 staining was performed.
FACS analyses and sorting: All cell surface staining was performed in FACS buffer (PBS/2% FCS/0.1% NaN3) and antibodies were incubated with cells on ice for 20-30 minutes. Cells were washed with FACS buffer and fixed with FACS buffer plus 1% paraformaldehyde prior to data acquisition. For phospho-STAT3 intracellular staining, stimulated T cells cultured with or without TGF plus IL-6 for the indicated times were harvested on ice and fixed in PBS plus 2% paraformaldehyde for 10 minutes at 37° C. Fixed cells were washed twice with staining buffer (PBS/1% BSA/0.1% NaN3) and then permeabilized with perm buffer III (BD Pharmingen) on ice for 30 minutes. […] All FACS data was acquired on a FACSCalibur flow cytometer (BD Pharmingen) and analyzed using FlowJo software (Treestar, Inc., Ashland, Oreg.). […]

[5] = human, in vivo; cited from earlier work

Compound: O=C(CC1NCCCC1O)Cn1cnc2cc(Br)c(Cl)cc2c1=O (racemic) [HF, 7-bromo-6-chloro-3-[3-(3-hydroxy-2-piperidinyl)-2-oxopropyl]-4(3H)-quinazolinone]
- apoptosis (Annexin V+ PI−) of Jurkat T cells, in words [1]: caused significant apoptosis
- Asns, Gpt2, eIF4Ebp1 mRNA (qPCR), in words [2]: induced
- radiation induced fibrosis, in words ([3]; 1-5 μg/mouse (Xavier et al.)): prevented radiation induced fibrosis but not normal healing of irradiated tissue
- toxic effect in mice, in words ([3]; 1-5 μg/mouse): without evident toxic effect
- time post activation at which maintenance of STAT3 phosphorylation begins to decrease ([4]; 5 or 10 nM HF, TGFβ plus IL-6): around 12 hours
- effect on early STAT3 activation, in words ([4]; first 6 hours of Th17 differentiation): did not interfere with STAT3 activation during the first 6 hours
- HF in serum during topical treatment, in words [5]: undetectable in serum
